Consider seven compounds from US9499552B2, “Pyrazolo[1,5-A]pyrimidine derivative and use of anti-tumor thereof” (YANTAI UNIVERSITY, priority 2014, dated 2016).

By EC50 is commonly meant the concentration giving half of the maximal effect. Read a high EC50 as weaker potency. The IC50 is the point on the concentration scale where inhibition reaches its midpoint.

Where only a bound is given, the exact number is not on record here.

One data set deals with T1, TRPC6 ion channels (Mus musculus, UniProt Q61143).
T1 construct: expressed in transfected cells; host or cells: HEK293 co-expressing M5 muscarinic receptor
T1 sequence (Q61143 1-930): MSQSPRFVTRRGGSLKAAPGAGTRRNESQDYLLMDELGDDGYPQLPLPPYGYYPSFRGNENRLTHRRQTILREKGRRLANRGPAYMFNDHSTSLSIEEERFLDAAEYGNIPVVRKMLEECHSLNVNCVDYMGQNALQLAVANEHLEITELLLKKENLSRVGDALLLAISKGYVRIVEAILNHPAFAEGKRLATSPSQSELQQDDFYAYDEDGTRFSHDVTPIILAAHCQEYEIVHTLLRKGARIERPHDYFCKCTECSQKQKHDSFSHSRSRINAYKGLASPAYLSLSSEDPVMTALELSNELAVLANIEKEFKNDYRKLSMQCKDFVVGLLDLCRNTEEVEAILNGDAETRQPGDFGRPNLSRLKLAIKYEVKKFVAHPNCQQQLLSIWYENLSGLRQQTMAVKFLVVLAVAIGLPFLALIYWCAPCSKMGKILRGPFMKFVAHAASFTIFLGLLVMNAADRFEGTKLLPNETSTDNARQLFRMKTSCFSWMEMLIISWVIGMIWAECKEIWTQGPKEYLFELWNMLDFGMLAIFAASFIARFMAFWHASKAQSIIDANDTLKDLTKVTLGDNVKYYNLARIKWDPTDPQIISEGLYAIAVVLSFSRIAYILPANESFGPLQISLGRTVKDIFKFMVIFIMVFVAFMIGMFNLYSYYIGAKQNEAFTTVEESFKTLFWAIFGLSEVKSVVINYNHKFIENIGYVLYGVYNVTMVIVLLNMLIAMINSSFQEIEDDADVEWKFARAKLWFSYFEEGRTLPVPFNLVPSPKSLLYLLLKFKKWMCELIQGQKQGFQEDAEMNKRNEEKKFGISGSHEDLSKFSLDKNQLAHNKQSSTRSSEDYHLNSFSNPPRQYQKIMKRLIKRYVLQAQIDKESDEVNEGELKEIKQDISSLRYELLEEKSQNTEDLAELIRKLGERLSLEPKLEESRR
Kind of data set: Fluorescent membrane potential (FMP) detection of TRPC6 activation. The conditions noted are these: M085 at 0.4 μM~30 μM; HEK293 cells permanently transfected with TRPC6. The data set is classed as cell-based. Here is the method:
Pyrazolopyrimidines and their derivatives activated TRPC6 ion channels (FIG. 1). In HEK293 cells permanently transfected with TRPC6 ion channels, M085 was used as activator to detect the fluorescent membrane potential. Firstly, cells were stained with FLIPR membrane potential dyes (FMP). At 30 s, 0.1 μM, 0.4 μM, 1.1 μM, 3.3 μM, 10 μM, 30 μM of M085 were added, respectively.

In data set [1] the test system is HEK293 cells which were not transfected with TRPC6 ion channels. The experiment in a line: Fluorescent membrane potential detection in non-transfected control cells. It counts as cell-based. The following applies: M085 0.1-30 μM.
The target in a further data set is T2, mice TRPC6 (Mus musculus, UniProt Q61143).
T2 construct: expressed in transfected cells; host or cells: HEK293
T2 sequence (Q61143 1-930): T1 sequence (Q61143 1-930)
Kind of data set: Fluorescence calcium flux (Fluo4) detection of TRPC6 activation. The following applies: HEK293 cells expressing mice TRPC6. It counts as cell-based. As for the experimental part: Similar fluorescence calcium flux was used to detect the effect of M085 on [Ca^2+] concentration in HEK293 cells expressing mice TRPC6. The cells were stained using Ca^2+ indicator Fluo4. At 30 s, 0.1 μM, 0.4 μM, 1.1 μM, 3.3 μM, 10 μM, 30 μM of M085 were added. […] Wherein, M086 was subjected to fluorescent calcium flux detection and fluorescent membrane potential detection, respectively.
In general terms: A change in cytosolic calcium serves as a functional read-out for many receptors and channels.

Data set [2] has as its target T3, TRPC6 channel (Mus musculus, UniProt Q61143).
T3 construct: expressed in transfected cells; host or cells: HEK293
T3 sequence (Q61143 1-930): T1 sequence (Q61143 1-930)
Kind of data set: Whole-cell patch clamp assay, TRPC6 activation. It counts as cell-based. The conditions noted are these: for activation effect for TRPC6 channel (whole-cell patch clamp): HEK293 cells clamped at -100~+100 mV. The text has this:
HEK293 cells were clamped at −100˜+100 mV in the whole-cell recording mode.
In general terms: The patch-clamp technique gives a direct electrical read-out from membranes.

The target of data set [3] is T3, TRPC6 channel. Kind of data set: Whole-cell patch clamp assay, TRPC6 inhibition (carbachol-activated). It counts as cell-based. The following applies: for inhibition of TRPC6 channel (whole-cell patch clamp): HEK293 cells clamped at -100~+100 mV. As for the experimental part: M107 is representative (FIG. 3B, C). HEK293 cells were clamped at −100˜+100 mV in whole-cell recording mode. TRPC6 ion channels activated by carbachol (CCh, 30 μM) was inhibited by M107 (20 μM). At −100˜+100 mV, 20 μM of M107 provided 60% and 20% of inhibition rate for CCh (n=5).

Data set [4] concerns MCF7 human breast cancer cell line. The experiment in a line: MTT cytotoxic activity, MCF7. It counts as cell-based. The following applies: 72 h, read-out: IC50 cytotoxic activity in vitro. As for the experimental part: (§1) After the cells in logarithmic growth phase were digested with 0.25% trypsin-EDTA, a cell suspension at a certain concentration was prepared. Depending on cell growth rate, they were inoculated in 96-well plates at 1000-2000 cells/well. To each well 100 μL of the cell suspension was added. After 24 h, fresh medium containing various concentrations of the compounds or the corresponding solvent were added at 100 μL per well (DMSO final concentration <0.1%). 5 to 7 dose groups were arranged for each test compound. Each group comprised at least 3 parallel wells. After further culturing at 37° C. for 72 h, the supernatant was discarded. 100 μL of fresh serum-free medium containing 0.5 mg/mL MTT was added to each well, further cultured for 2 h. After the supernatant was discarded, to each well was added 200 μL DMSO to dissolve MTT formazan precipitate. After mixing homogeneously by a microoscillator, optical density (OD) was measured at 450 nm of reference wavelength, and at 570 nm of detection wavelength by a Microplate reader. The tumor cells treated by the solvent control was used as the control group. The inhibition rate of tumor cells for the compounds were calculated by the following equation and IC50 was calculated by the half of inhibition equation: […]

Data set [5] has as its system H460 human lung cancer cell line. The experiment in a line: MTT cytotoxic activity, H460. It counts as cell-based. The conditions noted are these: 72 h, read-out: IC50 cytotoxic activity in vitro. Here is the method: as §1
In data set [6] the test system is KB human oral epithelium carcinoma cell line. Kind of data set: MTT cytotoxic activity, KB. The conditions noted are these: 72 h, read-out: IC50 cytotoxic activity in vitro. The data set is classed as cell-based. Here is the method:
as §1

The test system of data set [7] is Lncap human prostate cancer cell line. Kind of data set: MTT cytotoxic activity, Lncap. It counts as cell-based. The following applies: 72 h, read-out: IC50 cytotoxic activity in vitro. As for the experimental part: as §1
Data set [8] deals with Pc3 human prostate cancer cell line. Kind of data set: MTT cytotoxic activity, Pc3. The following applies: 72 h, read-out: IC50 cytotoxic activity in vitro. The data set is classed as cell-based. Here is the method: as §1
The subject of data set [9] is Du145 human prostate cancer cell line. The experiment in a line: MTT cytotoxic activity, Du145. The data set is classed as cell-based. The conditions noted are these: 72 h, read-out: IC50 cytotoxic activity in vitro. Here is the method:
as §1

Data set [10] has as its system RM-1 mouse prostate cancer cell line. The experiment in a line: MTT cytotoxic activity, RM-1. The conditions noted are these: RM-1, MTT, 72 h; read-out: IC50 cytotoxic activity in vitro. The data set is classed as cell-based. Here is the method:
as §1

Data set [11] concerns prostate cancer RM-1 transplanted tumor. Kind of data set: Mice prostate cancer RM-1 transplanted tumor model. The data set is classed as in vivo. The following applies: for Inhibition rate of tumor growth / Tumor weight / body weight of Animals, Final / body weight of Animals, Initial: male C57/BL6 mice, i.p., Docetaxel 10 mg/kg × 3, M110 50 mg/kg × 4. As for the experimental part: Male C57/BL6 mice (18-22 g) were used. The experiment procedures are summarized as follows: mice who had prostate cancer RM-1 and grown well were sacrificed by cervical dislocation. Under sterile conditions, tumor mass growing well was stripped off, homogenized, diluted with physiological saline in 1:4. Each mouse was inoculated 0.2 mL of the tumor solution in the armpit and back (approximately 2*10^6 cells). On the next day, the animals were randomized into groups and the administration began. Compound M110 was administered at 50 mg/kg by intraperitoneal injection at 24 h after inoculation. The dosing volume was 0.1 mL/10 g. At the same time, docetaxel control group and solvent control group were set. As for the docetaxel group, the animals were administered by intraperitoneal injection at 10 mg/kg dose, the dosing volume was 0.1 mL/10 g. After continuous administration for 10 days, the animals were sacrificed by cervical dislocation, weighed the body and the tumor, respectively. Inhibition rate of tumor growth (%) was calculated, and the results were statistically processed.

For `CCOC(=O)N1CCC(c2cc(O)n3nc(C)c(-c4ccc(F)cc4)c3n2)CC1` [Compound M085], the “membrane depolarization (FMP fluorescence)” value at TRPC6 ion channels is on record as “increase of membrane depolarization”. For the same compound, the “fluorescent change (FMP)” value in data set [1] is on record as “no significantly fluorescent change”. The “activating effect for TRPC6 ion channel (fluorescence calcium flux)” value at mice TRPC6 was “exhibited activating effect”. Also, the “intracellular [Ca2+]” value on mice TRPC6 (M085 at 3.3 μM~30 μM, Fluo4) was “significantly increased”. For the same compound, the “activation effect for TRPC6 channel (whole-cell patch clamp)” value (from here on “activation effect for TRPC6 channel”) at TRPC6 channel [2] is reported as “have activation effect”. On TRPC6 channel [2] (HEK293 cells, concentration response 0.04-10 μM, n=5-7), this compound had a 50% effective concentration (EC50) of 2500 nM.
Regarding `Cc1nn2c(O)cc(C3CCN(C(=O)OCc4ccccc4)CC3)nc2c1-c1ccc(F)cc1` [Compound M086], the “activating effect for TRPC6 ion channel (fluorescence calcium flux)” value on mice TRPC6 was “exhibited activating effect”. In addition, the “activation effect for TRPC6 channel” value on TRPC6 channel [2] is on record as “have activation effect”.
Regarding `Cc1nn2c(O)cc(C3CCN(C(=O)OCc4ccccc4)CC3)nc2c1-c1ccc(Cl)cc1` [Compound M091], the “activating effect for TRPC6 ion channel (fluorescence calcium flux)” value on mice TRPC6 is “exhibited activating effect”. For the same compound, the “activation effect for TRPC6 channel” value at TRPC6 channel [2] is on record as “have activation effect”.
Take `CCOC(=O)N1CCC(c2cc(O)n3nc(C)c(-c4ccc(C(F)(F)F)cc4)c3n2)CC1` [Compound M092]: the “activating effect for TRPC6 ion channel (fluorescence calcium flux)” value at mice TRPC6 is reported as “exhibited activating effect”. In addition, on TRPC6 channel [2], the “activation effect for TRPC6 channel” value is recorded as “have activation effect”.
For the compound `Cc1nn2c(O)cc(C3CCN(C(=O)OC(C)(C)C)CC3)nc2c1-c1ccc(F)cc1` [Compound M107], the “inhibition rate for CCh-activated TRPC6 current, first value” against TRPC6 channel [3] (20 μM compound, CCh 30 μM, at -100~+100 mV (first printed, -100 mV), n=5) was 60%. Moreover, on TRPC6 channel [3] (20 μM compound, CCh 30 μM, at -100~+100 mV (second printed, +100 mV), n=5), the “inhibition rate for CCh-activated TRPC6 current, second value” was 20%. For the same compound, the “inhibition of TRPC6 channel (whole-cell patch clamp)” value at TRPC6 channel [3] is on record as “inhibited TRPC6 channel”.
Turning to `CCOC(=O)N1CCC(C)(c2cc(O)n3nc(C)c(-c4ccc(F)cc4)c3n2)CC1` [Compound M110], the “inhibition of TRPC6 channel (whole-cell patch clamp)” value against TRPC6 channel [3] was “inhibited TRPC6 channel”. Also, the 50% inhibitory concentration (IC50) is 12.1 µM in data set [4]; 21.9 µM in data set [5]; 9.47 µM in data set [6]; 4.33 µM in data set [7]; 30.8 µM in data set [8]; more than 100 µM in data set [9]. In data set [10], the IC50 came to 25.6 µM. Moreover, the “Inhibition rate of tumor growth” value in data set [11] came to 23%. The compound further came in with a Tumor weight in data set [11] of 2.0 ± 0.73 g. Besides, the “body weight of Animals, Final” value in data set [11] is given as 21.33 ± 1.51 g. Further, the “body weight of Animals, Initial” value in data set [11] amounted to 20.00 ± 0.76 g. The “pharmacological activity in vivo on RM-1 transplanted tumor growth” value in data set [11] (mice) is recorded as “inhibit growth of prostate cancer RM-1 transplanted tumor”.
For the compound `CC(=O)O[C@@]12CO[C@@H]1C[C@H](O)[C@@]1(C)C(=O)[C@H](O)C3=C(C)[C@@H](OC(=O)[C@H](O)[C@@H](NC(=O)OC(C)(C)C)c4ccccc4)C[C@@](O)([C@@H](OC(=O)c4ccccc4)[C@H]21)C3(C)C` [Docetaxel, docetaxel, reference compound], in data set [11], the “Inhibition rate of tumor growth” value was found to be 32%; the Tumor weight is given as 1.77 ± 0.61 g; the “body weight of Animals, Final” value is reported as 18.43 ± 2.17 g; the “body weight of Animals, Initial” value came out at 20.00 ± 1.07 g.
